IC50 data for 21 compounds are collected here from US9079913B2, “Spiro-oxindole MDM2 antagonists” (The Regents of the University of Michigan, priority 2009, dated 2015).

Like-named read-outs stand apart in the source and are kept apart here.

Test [1] relates to cancer cell lines with wild-type p53 / mutated or deleted p53 (ATCC). Briefly: Cell growth assay (WST-8), other cancer cell lines. The format is cell-based. (Formazan colour is commonly taken as a measure of viable cells.)
Test [2] concerns the target recombinant human His-tagged MDM2 protein (residues 1-118) (Homo sapiens (Human), UniProt Q00987). Briefly: Fluorescence-polarization MDM2 binding assay.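 Also: fluorescence polarization read after three hours of incubation in potassium phosphate buffer containing bovine gamma globulin and Triton X-100.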
Procedure: The assay was performed in the buffer: 100 mM potassium phosphate, pH 7.5; 100 μg/mL bovine gamma globulin; 0.02% sodium azide, 0.01% Triton X-100) and the polarization values were measured after 3 h of incubation using an ULTRA READER (Tecan U.S. Inc., Research Triangle Park, N.C.). […] The Kd value was calculated using the equation: Kd value=IC50−L0/2.
The polarization values were measured after 3 h of incubation. […] Curve fitting was performed using [sequence] PRISM software (GraphPad Software, Inc., San Diego, Calif.). […] Compounds shown in Tables 19A-D as the free base were tested either as the free base or as the CF3CO2H (TFA) or HCl salt.
The subject of test [3] is Isogenic HCT-116 colon cancer cell lines. Briefly: cells. The format is cell-based.
Procedure: Cells were seeded in 96-well flat bottom cell culture plates at a density of 2−3×10^3 cells/well with compounds and incubated for 4 days.
[4] abbreviates: Homo sapiens, LNCaP, Table 19D, LNCaP cells, read-out: LNCaP IC50.
Where [5] appears, read: Homo sapiens, PC-3, Table 19D, PC3 cells, read-out: PC3 IC50.
Setting [6] is: Homo sapiens, Table 19D, SJSA-1 cells, unit inferred, read-out: SJSA-1.
[7] abbreviates: Table 19D, read-out: MDM2 Binding Affinities IC50.
[8] abbreviates: Homo sapiens, HCT-116, read-out: HCT116p53KO IC50, Table 19D, HCT116 p53KO.
The mark [9] stands for this setting: Homo sapiens, HCT-116, read-out: HCT116p53WT IC50, Table 19D, HCT116 p53WT.
The mark [10] stands for this setting: Homo sapiens, LNCaP, Table 19B, LNCaP cells, read-out: Inhibition of cell growth IC50, LNCaP.
[11] abbreviates: Homo sapiens, PC-3, Table 19B, PC3 cells, read-out: Inhibition of cell growth IC50, PC3.
Where [12] appears, read: Table 19B, read-out: Binding affinities to MDM2 protein as determined by FP based assay IC50.
[13] abbreviates: Homo sapiens, HCT-116, read-out: Inhibition of cell growth IC50, HCT116 p53 KO, Table 19B, HCT116 p53 KO.
[14] abbreviates: Homo sapiens, HCT-116, read-out: Inhibition of cell growth IC50, HCT116 p53 WT, Table 19B, HCT116 p53 WT.
[15] abbreviates: Table 19B, LNCaP cells, read-out: Inhibition of cell growth IC50, LNCaP.
[16] abbreviates: Table 19B, PC3 cells, read-out: Inhibition of cell growth IC50, PC3.
Where [17] appears, read: read-out: Inhibition of cell growth IC50, HCT116 p53 KO, Table 19B, HCT116 p53 KO.
The mark [18] stands for this setting: read-out: Inhibition of cell growth IC50, HCT116 p53 WT, Table 19B, HCT116 p53 WT.

Sequence of recombinant human His-tagged MDM2 protein (residues 1-118) (Q00987 1-118): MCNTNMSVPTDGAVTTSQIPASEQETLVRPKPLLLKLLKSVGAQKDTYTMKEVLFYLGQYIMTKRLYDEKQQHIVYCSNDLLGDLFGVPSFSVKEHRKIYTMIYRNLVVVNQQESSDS

As to `CC(C)(C)C[C@H]1N[C@@H](C(=O)NC2CCN(CCF)CC2)[C@H](c2cccc(Cl)c2F)[C@@]12C(=O)Nc1cc(Cl)ccc12` [MI-519-56], the IC50 in test [1] (Homo sapiens, LNCaP, Table 19A, LNCAP cells, p53 wild-type, cell growth, read-out: LNCAP (p53 wild-type) IC50) is > 10 µM; in test [1] (Homo sapiens, SJSA-1, Table 19A, SJSA-1 cells, p53 wild-type, cell growth, read-out: SJSA-1 (p53 wild-type) IC50) it was < 1 µM; in test [2] (Table 19A, FP binding assay, read-out: MDM2 IC50), < 1 µM; in test [3] (Homo sapiens, HCT-116, read-out: HCT-116 (p53 wild-type) IC50, Table 19A, HCT-116 p53 wild-type, cell growth), < 1 µM.

Consider `CC(C)(C)C[C@H]1N[C@@H](C(=O)NC2CCN(CCC(F)(F)F)CC2)[C@H](c2cccc(Cl)c2F)[C@@]12C(=O)Nc1cc(Cl)ccc12` [MI-519-57-1], for which the IC50 was < 3 µM in test [1] (setting [4]); 8.8 µM in test [1] (setting [5]); < 3 µM in test [1] (setting [6]); < 1 µM in test [2] (setting [7]); 9.5 µM in test [3] (setting [8]); < 3 µM in test [3] (setting [9]).

Regarding `CN1CC[C@@H](NC(=O)[C@@H]2N[C@H](CC(C)(C)C)[C@]3(C(=O)Nc4cc(Cl)ccc43)[C@H]2c2cccc(Cl)c2F)[C@@H](F)C1` [MI-519-58], the IC50 is < 3 µM in test [1] (setting [4]); > 10 µM in test [1] (setting [5]); < 3 µM in test [1] (setting [6]); < 1 µM in test [2] (setting [7]); > 10 µM in test [3] (setting [8]); < 3 µM in test [3] (setting [9]).

On to `CC(C)(C)C[C@H]1N[C@@H](C(=O)N[C@@H]2CCN(CCF)C[C@@H]2F)[C@H](c2cccc(Cl)c2F)[C@@]12C(=O)Nc1cc(Cl)ccc12` [MI-519-59], for which the IC50 in test [1] (setting [4]) is < 3 µM; in test [1] (setting [5]), > 10 µM; in test [1] (setting [6]), < 3 µM; in test [2] (setting [7]), < 1 µM; in test [3] (setting [8]) it was > 10 µM; in test [3] (setting [9]) it was < 1 µM.

As for `O=C(NCC[C@H](O)CO)[C@@H]1N[C@H](CCc2ccccc2)[C@]2(C(=O)Nc3cc(Cl)c(F)cc32)[C@H]1c1cccc(Cl)c1` [MI-701], the IC50 in test [1] (setting [10]) is 3 ± 3.5 µM; in test [1] (setting [11]), 48.9 ± 22.4 µM; in test [2] (setting [12]), > 10 µM; in test [3] (setting [13]), 33.8 ± 14.6 µM; in test [3] (setting [14]) it was 16.7 ± 13 µM.

As to `CCC[C@H]1N[C@@H](C(=O)NCC[C@H](O)CO)[C@H](c2cccc(Cl)c2)[C@@]12C(=O)Nc1cc(Cl)c(F)cc12` [MI-702], the IC50 in test [1] (setting [10]) was 1.9 ± 0.3 µM; in test [1] (setting [11]), 14.3 ± 2.9 µM; in test [2] (setting [12]), > 1 µM; in test [3] (setting [13]), 12.7 ± 2.3 µM; in test [3] (setting [14]) it was 5.8 ± 1.7 µM.

Consider `O=C(NCC[C@H](O)CO)[C@@H]1N[C@H](CCc2cccs2)[C@]2(C(=O)Nc3cc(Cl)c(F)cc32)[C@H]1c1cccc(Cl)c1` [MI-703], for which the IC50 was 0.2 µM in test [1] (setting [10]); 3.9 ± 0.5 µM in test [1] (setting [11]); > 1 µM in test [2] (setting [12]); 4.3 ± 1.6 µM in test [3] (setting [13]); 1 ± 0.2 µM in test [3] (setting [14]).

Consider `O=C(NCC[C@H](O)CO)[C@@H]1N[C@H](CCCc2ccccc2)[C@]2(C(=O)Nc3cc(Cl)c(F)cc32)[C@H]1c1cccc(Cl)c1` [MI-704], for which the IC50 in test [1] (setting [10]) was 6.8 ± 0.2 µM; in test [1] (setting [11]) it was 18 ± 5.1 µM; in test [2] (setting [12]), > 1 µM; in test [3] (setting [13]) it was 12.1 ± 1 µM; in test [3] (setting [14]), 3 ± 0.9 µM.

For the compound `CC(C)CC[C@H]1N[C@@H](C(=O)NCC[C@H](O)CO)[C@H](c2cccc(Cl)c2)[C@@]12C(=O)Nc1cc(Cl)c(F)cc12` [MI-705], the IC50 in test [1] (setting [10]) is 1.4 ± 0.8 µM; in test [1] (setting [11]), 43.9 ± 31.7 µM; in test [2] (setting [12]) it was < 10 µM; in test [3] (setting [13]) it was 32 ± 33.3 µM; in test [3] (setting [14]), 4.4 ± 4 µM.

In the case of `O=C(NCC[C@H](O)CO)[C@@H]1N[C@H](CC2CC2)[C@]2(C(=O)Nc3cc(Cl)c(F)cc32)[C@H]1c1cccc(Cl)c1` [MI-706], the IC50 in test [1] (setting [10]) was 0.3 µM; in test [1] (setting [11]), 4.6 ± 2.9 µM; in test [2] (setting [12]), < 10 µM; in test [3] (setting [13]) it was 1.3 ± 0.2 µM; in test [3] (setting [14]) it was 0.6 ± 0.1 µM.

With `O=C(NCC[C@H](O)CO)[C@@H]1N[C@H](CCc2ccsc2)[C@]2(C(=O)Nc3cc(Cl)c(F)cc32)[C@H]1c1cccc(Cl)c1` [MI-707], the IC50 is 0.3 µM in test [1] (setting [10]); 4.6 ± 2.9 µM in test [1] (setting [11]); < 5 µM in test [2] (setting [12]); 1.3 ± 0.2 µM in test [3] (setting [13]); 0.6 ± 0.1 µM in test [3] (setting [14]).

Regarding `CN1[C@@H](C(=O)NCC[C@H](O)CO)[C@H](c2cccc(Cl)c2)[C@@]2(C(=O)Nc3cc(Cl)c(F)cc32)[C@H]1CC(C)(C)C` [MI-708A], the IC50 in test [1] (setting [15]) is 3.5 µM; in test [1] (setting [16]), 83.8 ± 11.3 µM; in test [2] (setting [12]), > 3 µM; in test [3] (setting [17]) it was 95.6 ± 18.2 µM; in test [3] (setting [18]), 3.8 ± 1 µM.

With `CN1[C@@H](C(=O)NCC[C@H](O)CO)[C@H](c2cccc(Cl)c2)[C@@]2(C(=O)Nc3cc(Cl)c(F)cc32)[C@H]1CC(C)(C)C` [MI-708B], the IC50 in test [1] (setting [15]) was 6 ± 0.3 µM; in test [1] (setting [16]), 84.5 ± 18.3 µM; in test [2] (setting [12]), > 3 µM; in test [3] (setting [17]) it was 96.9 ± 17.8 µM; in test [3] (setting [18]) it was 6.6 ± 2.2 µM.

As for `CN1[C@@H](C(=O)NCC[C@H](O)CO)[C@H](c2cccc(Cl)c2)[C@@]2(C(=O)Nc3cc(Cl)c(F)cc32)[C@H]1CCCc1ccccc1` [MI-709], the IC50 is 5.6 ± 1.1 µM in test [1] (setting [10]); 7.2 ± 1.4 µM in test [1] (setting [11]); > 10 µM in test [2] (setting [12]); 9.4 ± 1.2 µM in test [3] (setting [13]); 9.9 ± 1.7 µM in test [3] (setting [14]).

For the compound `O=C(NCC[C@H](O)CO)[C@@H]1N[C@H](CCCc2cccs2)[C@]2(C(=O)Nc3cc(Cl)c(F)cc32)[C@H]1c1cccc(Cl)c1` [MI-710], the IC50 in test [1] (setting [10]) is 1.2 ± 0.2 µM; in test [1] (setting [11]) it was 12.4 ± 1.9 µM; in test [2] (setting [12]), > 1 µM; in test [3] (setting [13]), 12.4 ± 1.2 µM; in test [3] (setting [14]), 1.3 ± 0.3 µM.

For the compound `CN1[C@@H](C(=O)NCC[C@H](O)CO)[C@H](c2cccc(Cl)c2)[C@@]2(C(=O)Nc3cc(Cl)c(F)cc32)[C@H]1CCCc1cccs1` [MI-711], the IC50 in test [1] (setting [10]) was 4.8 ± 1.1 µM; in test [1] (setting [11]), 9.3 ± 2.5 µM; in test [2] (setting [12]), > 5 µM; in test [3] (setting [13]) it was 6.3 ± 2.9 µM; in test [3] (setting [14]) it was 8.6 ± 1.2 µM.

Consider `O=C(NCC[C@H](O)CO)[C@@H]1N[C@H](CCC2CCCC2)[C@]2(C(=O)Nc3cc(Cl)c(F)cc32)[C@H]1c1cccc(Cl)c1` [MI-712], for which the IC50 was 1 µM in test [1] (setting [10]); 7.9 ± 0.2 µM in test [1] (setting [11]); < 3 µM in test [2] (setting [12]); 9.1 ± 1 µM in test [3] (setting [13]); 1.8 ± 0.4 µM in test [3] (setting [14]).

Turning to `CN1[C@@H](C(=O)NCC[C@H](O)CO)[C@H](c2cccc(Cl)c2)[C@@]2(C(=O)Nc3cc(Cl)c(F)cc32)[C@H]1CCC1CCCC1` [MI-713], the IC50 in test [1] (setting [10]) is 2.7 ± 0.7 µM; in test [1] (setting [11]) it was 6.1 ± 2.1 µM; in test [2] (setting [12]), < 10 µM; in test [3] (setting [13]) it was 4.3 ± 0.7 µM; in test [3] (setting [14]) it was 4.9 ± 1.4 µM.

On to `CN1[C@@H](C(=O)NCC[C@H](O)CO)[C@H](c2cccc(Cl)c2)[C@@]2(C(=O)Nc3cc(Cl)c(F)cc32)[C@H]1CCc1cccs1` [MI-714], for which the IC50 in test [1] (setting [10]) is 4.3 µM; in test [1] (setting [11]), 7.7 ± 1.6 µM; in test [2] (setting [12]) it was > 10 µM; in test [3] (setting [13]) it was 7.5 ± 0.3 µM; in test [3] (setting [14]), 8.6 ± 0.1 µM.

`O=C(NCC[C@H](O)CO)[C@@H]1N[C@H](CCc2ccco2)[C@]2(C(=O)Nc3cc(Cl)c(F)cc32)[C@H]1c1cccc(Cl)c1` [MI-715B]: the IC50 was 3 ± 0.7 µM in test [1] (setting [10]); > 10 µM in test [1] (setting [11]); < 5 µM in test [2] (setting [12]); > 10 µM in test [3] (setting [13]); 2.7 ± 1 µM in test [3] (setting [14]).

As to `O=C(NCC[C@H](O)CO)[C@@H]1N[C@H](CCc2ccco2)[C@]2(C(=O)Nc3cc(Cl)c(F)cc32)[C@H]1c1cccc(Cl)c1` [MI-715C], the IC50 is 2.2 ± 1.2 µM in test [1] (setting [15]); > 10 µM in test [1] (setting [16]); < 5 µM in test [2] (setting [12]); > 10 µM in test [3] (setting [17]); 2.9 ± 0.6 µM in test [3] (setting [18]).
